Assays:
[1] = target: T1, FLJ38531-derived protein (Homo sapiens, UniProt Q9BVM4); assay: Biacore dissociation constant (KD) measurement, FLJ38531-derived protein; format: binding; conditions: FLJ38531-derived protein (SEQ ID NO 13)
T1 construct: His-tag (N); made in house; host or cells: Escherichia coli BL21star(DE3)pLysS
T1 sequence (Q9BVM4 1-153): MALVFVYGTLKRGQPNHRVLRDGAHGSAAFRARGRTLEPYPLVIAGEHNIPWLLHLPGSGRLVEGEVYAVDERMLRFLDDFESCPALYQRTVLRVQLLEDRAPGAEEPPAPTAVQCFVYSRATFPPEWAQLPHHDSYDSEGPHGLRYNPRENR
Description: This washing operation was repeated as required.

[2] = target: T1, FLJ38531-derived protein; assay: SEC/MS interaction analysis, FLJ38531-derived protein (hypothetical protein BC004360); format: binding
Description: To analyze the interactions between commonly used drugs and proteins expressed from human full-length cDNA clones while keeping both the proteins and the compounds in non-modified, non-immobilized state, size exclusion chromatography (SEC) and mass analysis were used in combination. The specific procedures are shown below.
The compound-protein mixture prepared in step 1 was subjected to chromatography using an SEC column, the compound and the protein were separated by SEC, and the compound that interacted with the bound compound or protein contained in the protein fraction was analyzed using a mass analyzer.
Protein concentrations were measured using BCA Protein Assay (PIERCE), in consideration of the purity calculated by SDS-PAGE.
Mass analysis was performed using LCQ DECA XP (Thermoelectron) or Q-TOF micro (Micromass), equipped with an ESI probe. The LC pump used was Agilent 1100 (Yokogawa Analytical Systems), and the autosampler used was HTC-PAL (CTC Analytics) equipped with a cooling stacker. The SEC column used was a micro-LC column or a 384-well spin column. […]
In the 384-well spin column method, Unifilter 100 (Whatman), packed with 10 μL (dry volume) of Bio-Gel P6 (BIO-RAD) and swollen with milliQ water, was used as the SEC column. […] The SEC spin column was mounted on an acetonitrile-aliquoted 384-well U-bottom plate and centrifuged; the SEC spin column filtrate, which is a protein fraction, was recovered in 50% acetonitrile. The protein precipitate produced by the acetonitrile was removed via centrifugation and filtration for deproteinization; the resulting filtrate was concentrated by centrifugal concentration and re-dissolved in 10 μL of 50% methanol to obtain a mass analysis sample. The mobile phase supplied to the mass analyzer was 0.1% formic acid/50% methanol solution in the positive ion mode, and 0.1% ammonia/50% methanol solution in the negative ion mode; these mobile phases were used at a flow rate of 40 μL/min. 2-μL of mass analysis samples were injected using an autosampler at 2-minute intervals; the mass spectral intensity of the compound was measured to retrieve the spectral intensity of the pharmaceutical compound contained in the SEC spin column filtrate (protein fraction eluted from SEC).

[3] = test system: FLJXXXXX-derived proteins; assay: SEC/MS spin column interaction analysis of FLJXXXXX-derived proteins and various compounds (Tables 30-1 to 30-4); format: binding, human; conditions: SEC spin column filtrate, spectral intensity increased with doses of compound and protein

For `O=C(O)c1cc(/N=N/c2ccc(S(=O)(=O)Nc3ccccn3)cc2)ccc1O` [sulfasalazine], the Kd [1] was 8.9 µM, the “spectrum intensity of the compound in the SEC spin column filtrate” value ([2]; compound 12.5 μM, protein 0 μM) was 59203 and the “spectrum intensity of the compound in the SEC spin column filtrate” value ([2]; compound 12.5 μM, protein 5 μM) was 261679. The “spectrum intensity of the compound in the SEC spin column filtrate” value ([2]; compound 12.5 μM, protein 10 μM) was 686531, the “spectrum intensity of the compound in the SEC spin column filtrate” value ([2]; compound 12.5 μM, protein 25 μM) was 2048630 and the “spectrum intensity of the compound in the SEC spin column filtrate” value ([2]; compound 25 μM, protein 0 μM) was 53384. For the same compound, the “spectrum intensity of the compound in the SEC spin column filtrate” value ([2]; compound 25 μM, protein 5 μM) was 401351, the “spectrum intensity of the compound in the SEC spin column filtrate” value ([2]; compound 25 μM, protein 10 μM) was 946518 and the “spectrum intensity of the compound in the SEC spin column filtrate” value ([2]; compound 25 μM, protein 25 μM) was 2600573. For the same compound, the “spectrum intensity of the compound in the SEC spin column filtrate” value ([2]; compound 62.5 μM, protein 0 μM) was 179387, the “spectrum intensity of the compound in the SEC spin column filtrate” value ([2]; compound 62.5 μM, protein 5 μM) was 688076 and the “spectrum intensity of the compound in the SEC spin column filtrate” value ([2]; compound 62.5 μM, protein 10 μM) was 1418687. The “spectrum intensity of the compound in the SEC spin column filtrate” value ([2]; compound 62.5 μM, protein 25 μM) was 3155516, the “interaction judged from spectrum intensity of the compound in the SEC spin column filtrate (protein fraction eluted from SEC)” value ([2]; spin column method, doses of both compound and protein varied) was “concentration-dependent interaction” and the “FLJ No of the derived protein with which the compound was judged to exhibit a concentration-dependent interaction” value [3] was “FLJ38531”.

Reference: patent US20090143285A1, “TARGET PROTEIN AND TARGET GENE FOR DRUG DISCOVERY AND SCREENING METHOD” (REVERSE PROTEOMICS RESEARCH INSTITUTE CO., LTD., priority 2005, published 2009)
